Legend:
[1] = tested on: adjuvant-induced arthritis in male Lewis rats; assay: adjuvant-induced arthritis test in rats; format: in vivo, rat; conditions: change day 28 minus day 21; 30 mg/kg by intubation each day for seven days; vehicle result in parenthesis
Experimental: As mentioned earlier, the compounds of formula (1) and pharmaceutically acceptable salts of compounds of formula (1) are useful in the treatment or prevention of inflammations and diseases where inflammation is the innate cause. For example, they can be used as anti-inflammatory agents in the treatment of inflammatory joint diseases, such as arthritis. To substantiate this assertion, representative compounds of formula (1) were tested for their inflammation-inhibiting properties in the adjuvant-induced arthritis test in rats as described in Int J Immunopharma, […], 12, 709-712.
A quantity of 0.1 ml of a 0.5% (weight/volume) suspension of heat-killed and dried mycobacterium butyricum in heavy mineral oil, containing 0.2% digitonin, is injected into the base of the tail of male Lewis rats (120-140 g). The animals are housed individually and receive feed and water ad libitum. The thus-induced arthritis is allowed to develop without treatment during 21 days. On day 21 the body weight of each animal is determined. At the same time, the volumes of the two hind paws of each animal are measured by immersing the paws in an aqueous plethysmograph up to the height of the lateral malleolus. Thereupon, the animals are divided into groups, each group comprising six animals of approximately the same average volumes of the hind paws. One group is administered suspending vehicle. The other groups are administered the micronized test compound suspended in an aqueous suspending vehicle [0.9% NaCl (w/v) containing 0.5% carboxymethyl cellulose (w/v), 0.86% benzyl alcohol (v/v) and 0.39% Tween 80 (v/v)]. The test compound in aqueous suspending vehicle (or vehicle alone) is administered to the animals by intubation each day over a period of seven days. The effect of the test compounds is monitored daily by measurement of the hind paw volumes and body weights. At the end of the treatment period (day 28), body weights and volumes of the hind paws are again determined. The changes over the treatment period are calculated. The change in paw volume or body weight equals the paw volume or body weight on day 28 minus paw volume or body weight on day 21.
The results determined for representative compounds of formula (1) in the test described hereinbefore are set forth in the following Table I. Therein, the results for vehicle is in parenthesis following the results for each tested compound at a dose level of 30 mg/kg in each test.

[2] = tested on: purified potato 5-lipoxygenase; assay: LOX Inhibitor Screening Assay Kit (Cayman), colorimetric; format: biochemical; conditions: arachidonic acid as substrate
Experimental: A representative compounds of formula (1a), was also tested for the effects on the activity of purified COX1, COX2, and LOX5 enzymes. In sharp contrast to the potent activity in the adjuvant-induced arthritis test in rats, the activity against the isolated arachidonic acid metabolizing enzymes was low. LOX5 activity was also measured colorimetrically by the hydroperoxides generated from the incubation of purified potato 5-lipoxygenase (Cayman Chemical Item Number 60401) in the LOX Inhibitor Screening Assay Kit (Cayman Chemical Item Number 760700) using arachidonic acid as substrate and following the protocol provided by Cayman Chemical. The test substance A inhibited the enzyme at 300, 100, 30 μM at 89, 69, and 46%, respectively.

ovine COX-1 = biological target: T1, ovine COX-1 (Ovis aries, UniProt P05979); assay: COX Activity Assay (Cayman), colorimetric, COX-1; format: biochemical; conditions: at a level of 300 μM
T1 construct: purchased Cayman Chemicals
T1 sequence (P05979 25-600): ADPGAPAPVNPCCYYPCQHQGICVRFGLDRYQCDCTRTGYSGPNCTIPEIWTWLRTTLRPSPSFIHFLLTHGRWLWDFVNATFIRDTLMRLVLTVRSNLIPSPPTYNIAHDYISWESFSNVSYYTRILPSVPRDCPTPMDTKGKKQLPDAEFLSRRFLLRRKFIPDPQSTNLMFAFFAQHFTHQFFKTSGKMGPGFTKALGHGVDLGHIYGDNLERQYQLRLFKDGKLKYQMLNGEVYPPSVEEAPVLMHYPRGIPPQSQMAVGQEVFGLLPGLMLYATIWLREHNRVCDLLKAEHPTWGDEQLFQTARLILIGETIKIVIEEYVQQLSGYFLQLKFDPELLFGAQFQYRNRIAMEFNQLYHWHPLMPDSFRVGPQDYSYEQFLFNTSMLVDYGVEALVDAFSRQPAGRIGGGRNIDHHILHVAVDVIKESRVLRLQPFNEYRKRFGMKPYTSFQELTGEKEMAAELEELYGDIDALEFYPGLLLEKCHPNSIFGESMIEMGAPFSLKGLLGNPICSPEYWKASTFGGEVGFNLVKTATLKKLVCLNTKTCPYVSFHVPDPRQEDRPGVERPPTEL
Experimental: (§1) A representative compounds of formula (1a), was also tested for the effects on the activity of purified COX1, COX2, and LOX5 enzymes. In sharp contrast to the potent activity in the adjuvant-induced arthritis test in rats, the activity against the isolated arachidonic acid metabolizing enzymes was low.
(§2) COX activity was measured using an assay kit obtained from Cayman Chemicals in accord with the instruction manual of the manufacturer “COX Activity Assay, Catalog No. 760151, Colorimetric Assay for the Determination of COX Activity.” The enzyme activity was determined by the peroxidase activity of cyclooxygenases on arachidonic acid and monitored colorimetrically at 590 nm by the appearance of oxidized N,N,N′,N′-tetramethyl-p-phenylenediamine. Both ovine COX-1 and human recombinant COX-2 were obtained from Cayman Chemicals.

human recombinant COX-2 = biological target: T2, human recombinant COX-2 (Homo sapiens, UniProt P35354); assay: COX Activity Assay (Cayman), colorimetric, COX-2; format: biochemical; conditions: read-out: IC50 for COX2
T2 construct: purchased Cayman Chemicals
T2 sequence (P35354 18-604): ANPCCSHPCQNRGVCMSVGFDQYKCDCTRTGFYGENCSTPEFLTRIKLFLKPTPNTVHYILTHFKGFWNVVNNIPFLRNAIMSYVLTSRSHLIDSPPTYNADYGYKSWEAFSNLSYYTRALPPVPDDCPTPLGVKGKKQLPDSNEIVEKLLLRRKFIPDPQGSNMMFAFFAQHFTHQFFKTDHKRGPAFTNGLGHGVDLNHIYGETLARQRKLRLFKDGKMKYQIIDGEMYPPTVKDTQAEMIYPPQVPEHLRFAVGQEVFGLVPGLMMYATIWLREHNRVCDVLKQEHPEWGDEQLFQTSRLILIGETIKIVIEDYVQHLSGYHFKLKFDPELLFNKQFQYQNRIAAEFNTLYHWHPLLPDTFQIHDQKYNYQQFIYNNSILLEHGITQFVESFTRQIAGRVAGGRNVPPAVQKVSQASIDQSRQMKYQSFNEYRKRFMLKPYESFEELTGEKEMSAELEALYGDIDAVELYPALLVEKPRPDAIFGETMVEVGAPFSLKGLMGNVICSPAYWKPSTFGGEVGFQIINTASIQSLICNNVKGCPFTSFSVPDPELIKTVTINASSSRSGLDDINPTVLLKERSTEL
Experimental: as §1, §2

Row | LOX5 inhibition ([2]; 30 μM) | LOX5 inhibition ([2]; 100 μM) | LOX5 inhibition ([2]; 300 μM) | effect on COX1 (ovine COX-1) | IC50 (human recombinant COX-2) | SMILES | Body weight change (g) [1] | Left paw volume (mL) [1] | Right paw volume (mL) [1]
1 | – | – | – | – | – | CNC(=O)c1cnc(OC)nc1-c1cc(C(C)(C)C)c(O)c(C(C)(C)C)c1 [C, 4-(3,5-di-tert-butyl-4-hydroxy-phenyl)-2-methoxy-pyrimidine-5-carboxylic acid methylamide] | 28 ± 2 (13) g | −0.65 ± 0.02 (0.09) mL | −0.61 ± 0.01 (0.08) mL
2 | 46% | 69% | 89% | no effect | 60 µM | CNC(=O)c1cnc(C)nc1-c1cc(C(C)(C)C)c(O)c(C(C)(C)C)c1 [Compound A, 4-(3,5-di-tert-butyl-4-hydroxy-phenyl)-2-methyl-pyrimidine-5-carboxylic acid methylamide] | 25 ± 3 (13) g | −0.88 ± 0.12 (0.09) mL | −0.99 ± 0.15 (0.08) mL

— patent US8580805B2, “Pyrimidine carboxamide derivatives” (priority 2010, dated 2013)
